Read-outs that look alike come from different tables or passages of the source. Ends that are not written are not given here.
Assays:
[1] = tested on: Pseudomonas aeruginosa PAO1; conditions: for MIC: Table 2, Pseudomonas aeruginosa PAO1
[2] = tested on: Pseudomonas aeruginosa PAO1
[3] = tested on: Staphylococcus aureus ATCC 6538P; conditions: for MBC/MIC: Table 2, Staphylococcus aureus ATCC 6538P
[4] = tested on: Salmonella typhimurium ATCC 14028; assay: MIC, broth microdilution; format: cell-based; conditions: Table 1; for MIC S. typ.: broth microdilution, Nutrient Broth 0.5×, overnight 37 °C, minimum of three independent experiments
Protocol: MIC values were determined on Gram-positive and Gram-negative bacteria by the broth microdilution method for antimicrobial peptides previously described [33, 89] with minor modifications.
Bacterial strains were grown in Luria-Bertani (LB) medium overnight at 37 °C and then diluted in Nutrient Broth at a final concentration of ~5 × 10^5 CFU/mL per well. Twofold serial dilutions of peptides were carried out in the test wells to obtain concentrations ranging from 50 μM to 0.05 μM. Plates were incubated overnight at 37 °C.
MIC value was defined as the lowest concentration at which growth was inhibited. Three independent experiments were performed for each MIC value.

[5] = tested on: Escherichia coli ATCC 25922
[6] = tested on: Klebsiella pneumonia ATCC 700603; conditions: for MIC K. pne.: ATCC 700603
[7] = tested on: Acinetobacter baumanii ATCC 17878
[8] = tested on: Salmonella enteriditis 706 RIVM
[9] = tested on: Pseudomonas aeruginosa PA14
[10] = tested on: Pseudomonas aeruginosa RP73 (clinical isolate)
[11] = tested on: Staphylococcus aureus ATCC 6538P; conditions: ATCC 6538
[12] = tested on: Enterococcus faecalis ATCC 29212
[13] = format: physicochemical
Text: The six peptides were produced in the recombinant form by using a previously described strategy that exploit the frog protein onconase (ONC) as a carrier to drive the peptide to inclusion bodies. The fusion proteins were expressed in Escherichia coli strain BL21DE3, using the pET22b(+) vector and named: ONC-DCless-H6-(P)FIBα-GVV27, ONC-DCless-H6-(P)FIBα-SFR22, ONC-DCless-H6-(P)FIBβ-GVV28, ONC-DCless-H6-(P)FIBβ-NWK23, ONC-DCless-H6-(P)FIBγ-GII30, ONC-DCless-H6-(P)FIBγ-TWK25 (nucleotide and amino acid sequences are reported in Supplementary Figure S1). […] Peptides were released by hydrolysis of an acidic labile “Asp-Pro” sequence leading to recombinant peptides endowed with an additional Pro residue at the N-terminus. Thus, the recombinant forms of these peptides are herein named (P)FIBα-GVV27, (P)FIBα-SFR22, (P)FIBβ-GVV28, (P)FIBβ-NWK23, (P)FIBγ-GII30, (P)FIBγ-TWK25. Hydrolysis efficiencies of 95% were estimated for all the recombinant proteins (Supplementary Figure S3). To purify the recombinant peptides from the hydrolysis mixtures, the carrier and the uncleaved fusion protein were selectively precipitated by increasing the pH to 7 exploiting the fact that ONC is insoluble at pH higher than 5, whereas most AMPs are soluble also at neutral pH. […] Therefore, purification of (P)FIBα-SFR22, (P)FIBα-GVV27, (P)FIBβ-NWK23 and (P)FIBγ-TWK25 was first performed by selective precipitation, to remove the carrier and the uncleaved fusion protein, followed by Reverse Phase High-Performance Liquid Chromatography (RP-HPLC) on a C18 column, whereas purification of (P)FIBβ-GVV28 and (P)FIBγ-GII30 was performed directly by RP-HPLC omitting the selective precipitation step. Final yields of all recombinant peptides ranged from approximately 6 to 12 mg per liter of LB culture. Peptide purity, as determined by RP-HPLC, typically varied between 95% and 99% (Supplementary Figure S4).
Peptides (P)FIBα-GVV27, (P)FIBα-SFR22, (P)FIBβ-NWK23 and (P)FIBγ-TWK25 were separated from the carrier and the uncleaved fusion proteins as previously described. The hydrolysis mixture was neutralized to pH 7–7.2 by adding 1 M NH3 and incubated for 1 h at 25 °C under nitrogen atmosphere in a water bath. […] Supernatant and insoluble fraction were analyzed by SDS-PAGE. Concentration of the peptide into the soluble fraction was determined by spectrophotometric analyses using extinction coefficients (Supplementary Table S1) calculated by the ProtParam tool. After the selective precipitation step, purification of the peptide was performed by RP-HPLC. The linear gradients used are listed in Supplementary Table S2. Purification of (P)FIBβ-GVV28 and (P)FIBγ-GII30 was performed directly by RP-HPLC, omitting the selective precipitation step. Purified peptides were lyophilized and dissolved in deionized water. Samples were stored at −80 °C under nitrogen atmosphere. Purity of peptides was evaluated by RP-HPLC on Europa Protein 300 C18 column (5 μm, 25 × 1) using the linear gradients listed in Supplementary Table S2. The identity of the peptides was confirmed by mass spectrometry.

HCoV-229E = conditions: Vero cells
[14] = tested on: P. aeruginosa PAO1 biofilm; assay: Antibiofilm attachment assay, confocal microscopy; conditions: peptide 20 µM added with bacteria, stained after 4 h, Live/Dead BacLight, three independent experiments, t-test vs control
[15] = Table 2, Pseudomonas aeruginosa PAO1
[16] = Table 1, broth microdilution, Nutrient Broth 0.5×, overnight 37 °C, minimum of three independent experiments
[17] = Table 1, control antibiotic, twofold dilutions from 64 µg/mL

CC[C@H](C)[C@H](NC(=O)[C@H](CCCCN)NC(=O)[C@H](CCC(=O)O)NC(=O)[C@H](CCCCN)NC(=O)[C@H](CO)NC(=O)[C@H](CCCCN)NC(=O)[C@H](CCCNC(=N)N)NC(=O)[C@H](Cc1ccccc1)NC(=O)[C@H](Cc1ccccc1)NC(=O)[C@H](CC(=O)O)NC(=O)CNC(=O)[C@H](CC(C)C)NC(=O)[C@@H](N)CC(C)C)C(=O)NCC(=O)N[C@@H](CCCCN)C(=O)N[C@@H](CCC(=O)O)C(=O)N[C@@H](Cc1ccccc1)C(=O)N[C@@H](CCCCN)C(=O)N[C@@H](CCCNC(=N)N)C(=O)N[C@H](C(=O)N[C@H](C(=O)N[C@@H](CCC(N)=O)C(=O)N[C@@H](CCCNC(=N)N)C(=O)N[C@H](C(=O)N[C@@H](CCCCN)C(=O)N[C@@H](CC(=O)O)C(=O)N[C@@H](Cc1ccccc1)C(=O)N[C@@H](CC(C)C)C(=O)N[C@@H](CCCNC(=N)N)C(=O)N[C@@H](CC(N)=O)C(=O)N[C@@H](CC(C)C)C(=O)N[C@H](C(=O)N1CCC[C@H]1C(=O)N[C@@H](CCCNC(=N)N)C(=O)N[C@H](C(=O)N[C@@H](CCC(=O)O)C(=O)N[C@@H](CO)C(=O)O)[C@@H](C)O)C(C)C)[C@@H](C)CC)C(C)C)[C@@H](C)CC [LL37, reference compound]
MIC ([1]; minimum of three independent experiments): 1.56 µM
MBC ([2]; Table 2, Pseudomonas aeruginosa PAO1, […], subculture on LB agar): 1.56 µM

NC[C@H]1O[C@H](O[C@H]2[C@H](O)[C@@H](O[C@H]3O[C@H](CO)[C@@H](O)[C@H](N)[C@H]3O)[C@H](N)C[C@@H]2N)[C@H](N)C[C@@H]1O [Tobramycin]
MBC/MIC [2, 15]: 2
MBC/MIC [3]: 2

Colistin [reference compound]
MIC ([1]; antibiotics): 0.5 µg/mL
MBC/MIC [2, 15]: 1
MBC ([2]; Table 2, Pseudomonas aeruginosa PAO1, antibiotics): 0.5 µg/mL

GVVWMNWKGSWYSMRKMSMKIRPFFPQQ [FIBβ-GVV28]
MIC S. typ. [4]: 12.5 µM
MIC E. coli ([5]; ATCC 25922): 6.25 µM
MIC K. pne. [6]: 25 µM
MIC A. bau. ([7]; ATCC 17878): 6.25 µM
MIC S. ent. [8, 16]: 12.5 µM
MIC PAO1 [1]: 6.25 µM
MIC PA14 ([9]; PA14): 6.25 µM
MIC RP73 ([10]; RP73 (clinical isolate)): 6.25 µM
MIC S. aur. [11]: 3.12 µM
MIC E. fae. ([12]; ATCC 29212): 6.25 µM

GVVWVSFRGADYSLRAVRMKIRPLVTQ [FIBα-GVV27]
MIC S. typ. [4]: 6.25 µM
MIC E. coli ([5]; ATCC 25922): 12.5 µM
MIC K. pne. [6]: 25 µM
MIC A. bau. [7, 16]: 6.25 µM
MIC S. ent. [8]: 12.5 µM
MIC PAO1 [1]: 6.25 µM
MIC PA14 [9, 16]: 6.25 µM
MIC RP73 ([10]; RP73 (clinical isolate)): 3.12 µM
MIC S. aur. [11]: 6.25 µM
MIC E. fae. [12, 16]: 6.25 µM

H-PGIIWATWKTRWYSMKKTTMKIIPFNRLTIG [(P)FIBγ-GII30]
MIC S. typ. [4]: 6.25 µM
solubility / aggregation at pH 7 [13]: particularly prone to aggregation and precipitation
MIC E. coli ([5]; ATCC 25922): 12.5 µM
MIC K. pne. [6]: 25 µM
MIC A. bau. [7, 16]: 6.25 µM
MIC S. ent. [8]: 12.5 µM
MIC PAO1 [1]: 12.5 µM
MIC PA14 [9, 16]: 6.25 µM
MIC RP73 ([10]; RP73 (clinical isolate)): 3.12 µM
MIC S. aur. [11]: 6.25 µM
MIC E. fae. [12, 16]: 6.25 µM
MBC ([2]; PAO1): 12.5 µM
MBC/MIC [2, 15]: 1
MBC ([3]; ATCC 6538): 6.25 µM
MBC/MIC [3]: 1
antiviral activity against HCoV-229E (HCoV-229E; co-treatment assay, from 50 μM peptide): strong antiviral activity
IC50 (HCoV-229E; read-out: IC50 against HCoV-229E, virus pre-treatment assay (virus incubated with peptide at 37 °C before infection)): 1300 nM
fluorescence signal of SYTO 9 (live cells), attachment assay [14]: significantly reduced

NWKGSWYSMRKMSMKIRPFFPQQ [FIBβ-NWK23]
MIC S. typ. [4]: 12.5 µM
MIC E. coli ([5]; ATCC 25922): 6.25 µM
MIC K. pne. [6]: 25 µM
MIC A. bau. ([7]; ATCC 17878): 6.25 µM
MIC S. ent. [8, 16]: 12.5 µM
MIC PAO1 [1]: 6.25 µM
MIC PA14 ([9]; PA14): 3.12 µM
MIC RP73 ([10]; RP73 (clinical isolate)): 6.25 µM
MIC S. aur. [11]: 3.12 µM
MIC E. fae. ([12]; ATCC 29212): 6.25 µM

Polymyxin B [reference compound]
MIC S. typ. (antibiotics) ([4]; control antibiotic, twofold dilutions from 64 µg/mL): 0.12 µg/mL
MIC E. coli (antibiotics) [5, 17]: 0.5 µg/mL
MIC K. pne. (antibiotics) [6, 17]: 0.5 µg/mL
MIC A. bau. (antibiotics) [7, 17]: 0.5 µg/mL
MIC S. ent. (antibiotics) [8, 17]: 0.5 µg/mL
MIC PAO1 (antibiotics) [1, 17]: 0.25 µg/mL
MIC PA14 (antibiotics) [9, 17]: 0.25 µg/mL
MIC RP73 (antibiotics) [10, 17]: 0.12 µg/mL

SFRGADYSLRAVRMKIRPLVTQ [FIBα-SFR22]
MIC S. typ. [4]: 50 µM
MIC E. coli ([5]; ATCC 25922): 25 µM
MIC K. pne. [6]: >50 µM
MIC A. bau. ([7]; ATCC 17878): 25 µM
MIC S. ent. [8]: 50 µM
MIC PAO1 [1]: 12.5 µM
MIC PA14 ([9]; PA14): 12.5 µM
MIC RP73 ([10]; RP73 (clinical isolate)): 12.5 µM
MIC S. aur. [11]: 12.5 µM
MIC E. fae. ([12]; ATCC 29212): 6.25 µM

TWKTRWYSMKKTTMKIIPFNRLTIG [FIBγ-TWK25]
MIC S. typ. [4]: 3.12 µM
MIC E. coli ([5]; Table 1, broth microdilution, Nutrient Broth 0.5×, ~5 × 10^5 CFU/mL, overnight 37 °C, minimum of three independent experiments): 3.12 µM
MIC K. pne. [6]: 6.25 µM
MIC A. bau. [7, 16]: 3.12 µM
MIC S. ent. [8]: 6.25 µM
MIC PAO1 [1]: 3.12 µM
MIC PA14 [9, 16]: 3.12 µM
MIC RP73 [10, 16]: 3.12 µM
MIC S. aur. [11]: 1.56 µM
MIC E. fae. ([12]; ATCC 29212): 6.25 µM

From article PMC12469503, “Exploring the Antimicrobial and Antiviral Properties of Cryptic Peptides from Human Fibrinogen” (International Journal of Molecular Sciences, 2025)
